The values that follow come from patent US11919902B2, “Aryl-bipyridine amine derivatives as phosphatidylinositol phosphate kinase inhibitors” (HiberCell, Inc., priority 2017, dated 2024).

For assay [1], the target named is T1, PIP4K2A (full length protein, SignalChem) (Homo sapiens, UniProt P48426).
T1 construct: 4 nM PIP4K2A (full length protein, SignalChem); purchased SignalChem
T1 sequence (P48426 1-406): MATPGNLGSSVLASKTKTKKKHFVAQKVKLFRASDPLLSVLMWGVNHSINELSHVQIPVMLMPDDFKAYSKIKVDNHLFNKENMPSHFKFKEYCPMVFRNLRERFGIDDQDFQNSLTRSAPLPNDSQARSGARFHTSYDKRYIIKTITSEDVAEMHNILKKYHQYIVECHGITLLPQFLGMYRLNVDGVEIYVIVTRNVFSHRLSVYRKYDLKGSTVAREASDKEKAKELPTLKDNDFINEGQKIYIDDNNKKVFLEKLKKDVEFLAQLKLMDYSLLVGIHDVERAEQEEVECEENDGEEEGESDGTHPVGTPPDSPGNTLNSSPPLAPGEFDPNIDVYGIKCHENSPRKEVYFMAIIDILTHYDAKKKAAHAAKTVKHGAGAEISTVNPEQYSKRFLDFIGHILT
In words: Kinase Assay PIP4K2 A (Sprint); ADP-Glo biochemical assay. The conditions noted are these: Table 2; compounds listed under IC50 range headings. The gist of the method: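 Compounds (10-point, 3-fold dilutions) were pre-incubated 15 min at RT with an enzyme/substrate mix of 4 nM full-length PIP4K2A and 100 μM PI(5)P diC8 in 20 mM MOPS pH 7.2, 25 mM MgCl2, 0.005% Tween 20. A 60 μM ATP solution was added, reaction 1 h RT; ADP read by ADP-Glo luminescence, IC50 fitted from % inhibition vs DMSO.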

The target in the next assay is T2, GST tagged PIP4KtypeIIB (Homo sapiens, UniProt P78356).
T2 construct: made in house; host or cells: E. coli
T2 sequence (P78356 1-416): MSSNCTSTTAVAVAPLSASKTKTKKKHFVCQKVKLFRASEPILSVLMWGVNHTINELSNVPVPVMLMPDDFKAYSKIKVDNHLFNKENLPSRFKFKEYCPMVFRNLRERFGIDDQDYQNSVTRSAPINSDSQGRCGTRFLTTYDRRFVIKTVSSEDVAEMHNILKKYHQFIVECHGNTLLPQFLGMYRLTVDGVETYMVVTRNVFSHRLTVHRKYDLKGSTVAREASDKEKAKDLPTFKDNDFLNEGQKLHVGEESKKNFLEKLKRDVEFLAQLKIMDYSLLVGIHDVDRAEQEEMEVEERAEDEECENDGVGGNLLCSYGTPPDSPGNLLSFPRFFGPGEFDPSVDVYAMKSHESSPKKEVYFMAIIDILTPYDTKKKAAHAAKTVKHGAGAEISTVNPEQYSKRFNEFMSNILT
Briefly: Trans-FI P kinase assay PIP4K2B (PIP4KtypeIIB inhibition assay). The assay is classed as biochemical. As to conditions: Table 4; compounds listed under IC50 range headings; 100 uM GTP, 5 nM PIP4KIIB; read-out: Trans-FI P kinase assays: PIP4K2B IC50. The text has this: GST tagged PIP4KtypeIIA and B enzymes were overexpressed in E. Coli and purified to >80% homogeneity. Phosphatidyl inositol-5-phosphate (PI5P, Cat. #850152, Avanti Polar Lipids Inc.) was used as the lipid substrate and phosphatidyl ethanolamine (DOPE 18:1, Cat. #850725, Avanti Polar Lipids Inc.) was used as the carrier lipid for assays. Ultrapure ATP and GTP was purchased from Bellbrooke Labs. ADP Glo reagents were obtained from Promega. Transcreener FI reagent was obtained from Bellbrooke labs.
1. HEPES buffer mix: 200 mM HEPES pH 7.4, 50 mM MgCl2, 0.05% v/v triton×100
2. HNE buffer: 20 mM HEPES, pH 7.4, 100 mM NaCl, 0.5 mM EGTA
3. H:E buffer: 30 mM HEPES, pH 7.4, 1 mM EGTA
GST-tagged PIP4KtypeIIB (3.4 uL, 2.77 mg/mL) was diluted to 5 mL using HNE buffer to yield 5× enzyme stock (25 nM)
Lipid Preparation: In a 10 mL pyrex glass vial, lug of PI5P and lug of DOPE were suspended in 2.5 mL of HEPES buffer mix and 2.5 mL of H:E buffer. The contents were mixed and sonicated for 3 min to yield a translucent lipid stock.
Compound Preparation: Compounds were stored as 5 mM stocks in neat DMSO as room temperature in glass vials. 5 mM stocks were diluted to 2 mM and then serially diluted (3×) in neat DMSO in 96 well polypropylene plates. From the serially diluted stocks, 3 uL was delivered into 250 uL of 25% DMSO (in water) to generate 5× compound stocks. Typically, the highest compound conc. was 24 uM.
The assay volume was kept at 25 uL. To each well of the reaction plate, 10 uL of lipid stock (1:1 ratio PI5P:DOPE) was delivered. This was followed by the addition of 5 uL of compound in 25% DMSO. Then, to each well, 5 uL of 25 nM (5×) typeIIB enzyme was delivered. The contents were mixed well and incubated for 1 h at 27 C. After 1 h, reaction was initiated by adding 5 uL of 500 uM GTP and the contents were mixed well with a multi-channel pipetteman. The final concentration of the reagents are as follows: 50 mM HEPES, pH 7.3, 10 mM MgCl2, 20 mM NaCl, 0.01% v/v triton-X100, 5% DMSO, 100 uM GTP, 80 uM (2 ug) PI5P, 2 ug DOPE, and 5 nM PIP4KIIB Typically, the highest conc. of compounds was 4.8 uM and the lowest conc. was 0.
After 2 h, the reaction was quenched by adding 25 uL of transcreener FI reagent. The contents were incubated at RT for 1 h and the Fluorescence (Ex: 584 Em: 623) was read using Molecular Devices Paradigm plate reader. […] The blanks were averaged and subtracted from all other wells. Using a calibration curve, RFU was converted to uM GDP (product). IC50 was calculated by plotting the residual activity (expressed as % No inhibitor control) vs. log [Inh. conc.] Table 2 represents PI5P4K activity of compounds (Example No.) of the invention arranged in accordance with the inhibition of PIP4K2 A kinase assay.

Regarding `CN1CCn2c(cc3c(-c4cncc(-c5ccc(C(=O)N6CCCC6)cc5)c4)ccnc32)C1=O` [Example 349, 7-methyl-4-(5-(4-(pyrrolidine-1-carbonyl)phenyl)pyridin-3-yl)-8,9-dihydropyrido[3′,2′:4,5]pyrrolo[1,2-a]pyrazin-6(7H)-one], the IC50 (in assay [1]; on GST tagged PIP4KtypeIIB) was 100 to 1000 nM each time.
In the case of `CC(C)c1cnnn1-c1ccc(-c2cncc(-c3ccnc4c3cc3n4CCN(c4ccccn4)C3=O)c2)cc1` [Example 357, 4-(5-(4-(5-isopropyl-1H-1,2,3-triazol-1-yl)phenyl)pyridin-3-yl)-7-(pyridin-2-yl)-8,9-dihydropyrido[3′,2′:4,5]pyrrolo[1,2-a]pyrazin-6(7H)-one], the IC50 in assay [1] lay in the range of 5 to 100 nM; at GST tagged PIP4KtypeIIB, 1 to 10 nM.
The corresponding values for `O=C1CCCN1c1ccc(-c2cncc(-c3cc(C4CC4)nc4nncn34)c2)cc1` [Example 333, 1-(4-(5-(7-cyclopropyl-[1,2,4]triazolo[4,3-a]pyrimidin-5-yl)pyridin-3-yl)phenyl)pyrrolidin-2-one] are 100 to 1000 nM and 100 to 1000 nM.
The corresponding values for `Cn1cc(-c2ccc(N)nc2)c2cc(-c3cncc(-c4ccc(N5CCCC5=O)cc4)c3)cnc21` [Example 347, 1-(4-(5-(3-(6-aminopyridin-3-yl)-1-methyl-1H-pyrrolo[2,3-b]pyridin-5-yl)pyridin-3-yl)phenyl)pyrrolidin-2-one] are 100 to 1000 nM and 100 to 1000 nM.
On to `CN1CCn2c(cc3c(-c4cncc(-c5ccc(-c6nnc7n6CCC7)cc5)c4)ccnc32)C1=O` [Example 348, 4-(5-(4-(6,7-dihydro-5H-pyrrolo[2,1-c][1,2,4]triazol-3-yl)phenyl)pyridin-3-yl)-7-methyl-8,9-dihydropyrido[3′,2′:4,5]pyrrolo[1,2-a]pyrazin-6(7H)-one], for which the IC50 (in assay [1]; on GST tagged PIP4KtypeIIB) was 100 to 1000 nM in each case.
Regarding `O=C(COc1cccc2c1C(=O)N(C1CCC(=O)NC1=O)C2=O)NCCOCCOCCOCCNC(=O)c1cc2c(-c3cncc(-c4ccc(N5CCCC5=O)cc4)c3)ccnc2[nH]1` (stereo not shown) [Example 393, N-(1-((2-(2,6-dioxopiperidin-3-yl)-1,3-dioxoisoindolin-4-yl)oxy)-2-oxo-6,9,12-trioxa-3-azatetradecan-14-yl)-4-(5-(4-(2-oxopyrrolidin-1-yl)phenyl)pyridin-3-yl)-1H-pyrrolo[2,3-b]pyridine-2-carboxamide], the half-maximal inhibitory concentration (IC50) in assay [1] is 1000 to 2500 nM; at GST tagged PIP4KtypeIIB it was 100 to 1000 nM.
The corresponding values for `O=C1CCCN1c1ccc(-c2cncc(-c3ccnc4nncn34)c2)cc1` [Example 340, 1-(4-(5-([1,2,4]triazolo[4,3-a]pyrimidin-5-yl)pyridin-3-yl)phenyl)pyrrolidin-2-one] are < 5000 nM and > 5000 nM.
The corresponding values for `Cc1[nH]nc2nccc(-c3cncc(-c4ccc(N5CCCC5=O)cc4)c3)c12` [Example 318, 1-(4-(5-(3-methyl-2H-pyrazolo[3,4-b]pyridin-4-yl)pyridin-3-yl)phenyl)pyrrolidin-2-one] are 1000 to 2500 nM and 100 to 1000 nM.
Consider `Cc1ccc2c(c1)OCCN2C(=O)c1cc2c(-c3cncc(-c4ccc(N5CCCC5=O)cc4)c3)ccnc2[nH]1` [Example 339, 1-(4-(5-(2-(7-methyl-3,4-dihydro-2H-benzo[b][1,4]oxazine-4-carbonyl)-1H-pyrrolo[2,3-b]pyridin-4-yl)pyridin-3-yl)phenyl)pyrrolidin-2-one], for which the IC50 (in assay [1]; on GST tagged PIP4KtypeIIB) was 100 to 1000 nM in each case.
As to `CC(C)n1cncc1-c1ccc(-c2cncc(-c3ccnc4c3cc3n4CCN(C)C3=O)c2)cc1` [Example 359, 4-(5-(4-(1-isopropyl-1H-imidazol-5-yl)phenyl)pyridin-3-yl)-7-methyl-8,9-dihydropyrido[3′,2′:4,5]pyrrolo[1,2-a]pyrazin-6(7H)-one], the IC50 (in assay [1]; at GST tagged PIP4KtypeIIB) was 100 to 1000 nM in each case.
For `Cc1cc(-c2cncc(-c3ccc(N4CCCC4=O)cc3)c2)n2cnnc2n1` [Example 336, 1-(4-(5-(7-methyl-[1,2,4]triazolo[4,3-a]pyrimidin-5-yl)pyridin-3-yl)phenyl)pyrrolidin-2-one], the results for the IC50 (in assay [1]; at GST tagged PIP4KtypeIIB) were < 5000 nM and > 5000 nM, respectively.
For the compound `CC(C)n1cnnc1-c1ccc(-c2cncc(-c3ccnc4[nH]c(C(=O)NCc5ccccc5)cc34)c2)cc1` [Example 373, N-benzyl-4-(5-(4-(4-isopropyl-4H-1,2,4-triazol-3-yl)phenyl)pyridin-3-yl)-1H-pyrrolo[2,3-b]pyridine-2-carboxamide], the IC50 in assay [1] was 100 to 1000 nM; on GST tagged PIP4KtypeIIB, 10 to 100 nM.
Turning to `CN(C)C(=O)c1ccc(-c2cc(-c3cnc4c(c3)c(-c3cccnc3)cn4C)cnc2N)nc1` [Example 121, 2′-amino-N,N-dimethyl-5′-(1-methyl-3-(pyridin-3-yl)-1H-pyrrolo[2,3-b]pyridin-5-yl)-[2,3′-bipyridine]-5-carboxamide], the half-inhibitory concentration (IC50) (in assay [1]; at GST tagged PIP4KtypeIIB) was 100 to 1000 nM in each case.
On to `Cc1c2n(c3nccc(-c4cncc(-c5ccc(-c6nncn6C6CCC6)cc5)c4)c13)CCN(c1ccccn1)C2=O` [Example 356, 4-(5-(4-(4-cyclobutyl-4H-1,2,4-triazol-3-yl)phenyl)pyridin-3-yl)-5-methyl-7-(pyridin-2-yl)-8,9-dihydropyrido[3′,2′:4,5]pyrrolo[1,2-a]pyrazin-6(7H)-one], for which the IC50 is < 5000 nM in assay [1] and 100 to 1000 nM on GST tagged PIP4KtypeIIB.
The like results for `CN1CCn2c(cc3c(-c4cncc(-c5ccc(-c6nncn6CCC6CC6)cc5)c4)ccnc32)C1=O` [Example 369] were, in that order, 100 to 1000 nM and 10 to 100 nM.
On to `CC(=O)Nc1ccc(-c2cn(C)c3ncc(-c4cncc(-c5ccc(N6CCCC6=O)cc5)c4)cc23)cn1` [Example 343, N-(5-(1-methyl-5-(5-(4-(2-oxopyrrolidin-1-yl)phenyl)pyridin-3-yl)-1H-pyrrolo[2,3-b]pyridin-3-yl)pyridin-2-yl)acetamide], for which the IC50 in assay [1] was 5 to 100 nM; at GST tagged PIP4KtypeIIB, 100 to 1000 nM.
Turning to `CN1CCn2c(cc3c(-c4cncc(-c5ccc(C(=O)N6CCC(C)(C)CC6)cc5)c4)ccnc32)C1=O` [Example 335, 4-(5-(4-(4,4-dimethylpiperidine-1-carbonyl)phenyl)pyridin-3-yl)-7-methyl-8,9-dihydropyrido[3′,2′:4,5]pyrrolo[1,2-a]pyrazin-6(7H)-one], the IC50 (in assay [1]; at GST tagged PIP4KtypeIIB) was 100 to 1000 nM throughout.
